Patent US7776847B2, “Benzisothiazoles useful for treating or preventing HCV infection” (priority 2005, dated 2010)
pIC50: −log10 of the molar value.

Test system: HCV replicon
Assay: HCV replicon luciferase reporter assay
Assay type: cell-based
Details: Hepatitis C virus, Table 5; read-out: IC50
Protocol: The inhibitory activity of certain exemplary compounds of the invention was confirmed using an HCV replicon assay. The HCV replicon can include such features as the HCV IRES, the HCV 3′ untranslated region, selected HCV genes encoding HCV polypeptides, selectable markers, and a reporter gene such as luciferase, GFP, etc. In the assay, actively dividing replicon-comprising cells were seeded at a density of between about 5,000 and 7,500 cells/well onto 96 well plates (about 90 μl of cells per well) and incubated at 37° C. and 5% CO2 for 24 hours. Then, the test compound (in a volume of about 10 μL) was added at various concentrations to each well and the cells were incubated for an additional 24-48 hours. The cells were harvested, and HCV replication or translation was monitored via a reporter assay, e.g., a luciferase reporter assay. The media was aspirated from each cell and Bright-Glo ([…].) luciferase assay reagents were added to each well according to the manufacturer's instructions. In this assay, the amount of test compound that yielded a 50% reduction in luciferase activity (IC50) was determined.

COC(=O)c1ccc(S(=O)(=O)N(CCCNc2nsc3ccccc23)Cc2ccc(-c3ccc(OC)cc3)cc2)n1C [Compound 317, methyl 5-(N-(3-(benzo[d]isothiazol-3-ylamino)propyl)-N-((4′-methoxybiphenyl-4-yl)methyl)sulfamoyl)-1-methyl-1H-pyrrole-2-carboxylate]
pIC50: > 5.30

COc1ccc(-c2ccc(CN(CCCNc3nsc4ccccc34)C(=O)CC#N)cc2)cc1 [Compound 319, N-(3-(benzo[d]isothiazol-3-ylamino)propyl)-2-cyano-N-((4′-methoxybiphenyl-4-yl)methyl)acetamide]
pIC50: > 5.30

COc1ccc(-c2ccc(CN(CCCNc3nsc4ccccc34)C(=O)CC3CCCN3)cc2)cc1 (centres unmarked) [Compound 320, N-(3-(benzo[d]isothiazol-3-ylamino)propyl)-N-((4′-methoxybiphenyl-4-yl)methyl)-2-(pyrrolidin-2-yl)acetamide]
pIC50: > 5.30

CCCCc1ccc(C(=O)NCCCNc2n[s+]([O-])c3ccccc23)cc1 (centres unmarked) [Compound 321, 4-butyl-N-{3-[(1-oxido-1,2-benzisothiazol-3-yl)amino]propyl}benzamide]
pIC50: < 5.30

CCCCc1ccc(C(=O)NCCCNC2=NS(=O)(=O)c3ccccc32)cc1 [Compound 322, 4-butyl-N-{3-[(1,1-dioxido-1,2-benzisothiazol-3-yl)amino]propyl}benzamide]
pIC50: < 5.30

COc1ccc(-c2ccc(CNCCCNC3=NS(=O)(=O)c4ccccc43)cc2)cc1 [Compound 324, N-(1,1-dioxido-1,2-benzisothiazol-3-yl)-N′-[(4′-methoxybiphenyl-4-yl)methyl]propane-1,3-diamine]
pIC50: < 5.30

O=S(=O)(NCCCNc1nsc2ccccc12)c1ccc(I)cc1 [Compound 325, N-(3-(benzo[d]isothiazol-3-ylamino)propyl)-4-iodobenzenesulfonamide]
pIC50: > 5.30

FC(F)(F)c1ccccc1CNCCCNc1nsc2ccccc12 [Compound 326, N^1-(benzo[d]isothiazol-3-yl)-N^3-(2-(trifluoromethyl)benzyl)propane-1,3-diamine]
pIC50: > 5.30

COc1cc(CNCCCNc2nsc3ccccc23)c(OCc2ccccc2)cc1OC [Compound 327, N^1-(benzo[d]isothiazol-3-yl)-N^3-(2-(benzyloxy)-4,5-dimethoxybenzyl)propane-1,3-diamine]
pIC50: > 5.30

c1ccc(COc2cccc(CNCCCNc3nsc4ccccc34)c2)cc1 [Compound 328, N^1-(benzo[d]isothiazol-3-yl)-N^3-(3-(benzyloxy)benzyl)propane-1,3-diamine]
pIC50: > 5.30

c1ccc(-c2ncc(CNCCCNc3nsc4ccccc34)[nH]2)cc1 [Compound 329, N^1-(benzo[d]isothiazol-3-yl)-N^3-((2-phenyl-1H-imidazol-4-yl)methyl)propane-1,3-diamine]
pIC50: > 5.30

c1ccc(-c2[nH]c3ccccc3c2CNCCCNc2nsc3ccccc23)cc1 [Compound 330, N^1-(benzo[d]isothiazol-3-yl)-N^3-((2-phenyl-1H-indol-3-yl)methyl)propane-1,3-diamine]
pIC50: > 5.30

COc1ccc(-c2ccc(S(=O)(=O)NCCCNc3nsc4ccccc34)cc2)cc1 [Compound 331, N-(3-(benzo[d]isothiazol-3-ylamino)propyl)-4′-methoxybiphenyl-4-sulfonamide]
pIC50: > 5.30

COc1ccc(-c2ccc(S(=O)(=O)NCCCNc3nsc4ccccc34)cc2)cc1OC [Compound 332, N-(3-(benzo[d]isothiazol-3-ylamino)propyl)-3′,4′-dimethoxybiphenyl-4-sulfonamide]
pIC50: > 5.30

O=S(=O)(NCCCNc1nsc2ccccc12)c1ccc(-c2ccc(OC(F)(F)F)cc2)cc1 [Compound 333, N-(3-(benzo[d]isothiazol-3-ylamino)propyl)-4′-(trifluoromethoxy)biphenyl-4-sulfonamide]
pIC50: > 5.30

COC(=O)c1ccc(-c2ccc(S(=O)(=O)NCCCNc3nsc4ccccc34)cc2)cc1 [Compound 334, methyl 4′-(N-(3-(benzo[d]isothiazol-3-ylamino)propyl)sulfamoyl)biphenyl-4-carboxylate]
pIC50: > 5.30

O=S(=O)(NCCCNc1nsc2ccccc12)c1ccc(-c2ccccc2C(F)(F)F)cc1 [Compound 335, N-(3-(benzo[d]isothiazol-3-ylamino)propyl)-2′-(trifluoromethyl)biphenyl-4-sulfonamide]
pIC50: > 5.30

FC(F)(F)Oc1ccc(-c2ccc(CNCCCNc3nsc4ccccc34)cc2)cc1 [Compound 336, N^1-(benzo[d]isothiazol-3-yl)-N^3-((4′-(trifluoromethoxy)biphenyl-4-yl)methyl)propane-1,3-diamine]
pIC50: > 5.30

c1ccc2oc(CNCCCNc3nsc4ccccc34)cc2c1 [Compound 337, N^1-(benzo[d]isothiazol-3-yl)-N^3-(benzofuran-2-ylmethyl)propane-1,3-diamine]
pIC50: > 5.30

c1ccc2c(NCCCNCc3ccc(N4CCCC4)cc3)nsc2c1 [Compound 338, N^1-(benzo[d]isothiazol-3-yl)-N^3-(4-(pyrrolidin-1-yl)benzyl)propane-1,3-diamine]
pIC50: > 5.30

COc1ccc(-c2ccc(CN(CCCNc3nsc4ccccc34)C(=O)CS(C)(=O)=O)cc2)cc1 [Compound 339, N-(3-(benzo[d]isothiazol-3-ylamino)propyl)-N-((4′-methoxybiphenyl-4-yl)methyl)-2-(methylsulfonyl)acetamide]
pIC50: > 5.30

COc1ccc(-c2ccc(CN(CCCNC3=NS(=O)(=O)c4ccccc43)S(=O)(=O)c3cn(C)c(C)n3)cc2)cc1 [Compound 340, N-{3-[(1,1-dioxido-1,2-benzisothiazol-3-yl)amino]propyl}-N-[(4′-methoxybiphenyl-4-yl)methyl]-1,2-dimethyl-1H-imidazole-4-sulfonamide]
pIC50: < 5.30

COc1cccc(CNCCCNc2nsc3ccccc23)c1 [Compound 343, N^1-(benzo[d]isothiazol-3-yl)-N^3-(3-methoxybenzyl)propane-1,3-diamine]
pIC50: > 5.30

COc1cccc(S(=O)(=O)N(C)CCCN(C)c2nsc3ccccc23)c1 [Compound 344, N-(3-(benzo[d]isothiazol-3-yl(methyl)amino)propyl)-3-methoxy-N-methylbenzenesulfonamide]
pIC50: < 5.30

CN(CCCN(C)S(=O)(=O)c1ccccc1C(F)(F)F)c1nsc2ccccc12 [Compound 345, N-(3-(benzo[d]isothiazol-3-yl(methyl)amino)propyl)-N-methyl-2-(trifluoromethyl)benzenesulfonamide]
pIC50: < 5.30

O=C1CCCN1c1ccc(CNCCCNc2nsc3ccccc23)cc1 [Compound 346, 1-(4-((3-(benzo[d]isothiazol-3-ylamino)propylamino)methyl)phenyl)pyrrolidin-2-one]
pIC50: < 5.30

COc1ccc(-c2ccc(CN(C)CCCN(C)c3nsc4ccccc34)cc2)cc1 [Compound 347, N^1-(benzo[d]isothiazol-3-yl)-N^3-((4′-methoxybiphenyl-4-yl)methyl)-N^1,N^3-dimethylpropane-1,3-diamine]
pIC50: < 5.30

O=C(N[C@@H](C(=O)NCCNc1nsc2ccccc12)c1ccccc1)c1ccc(Cl)cc1 [Compound 348, (R)-N-(2-(2-(benzo[d]isothiazol-3-ylamino)ethylamino)-2-oxo-1-phenylethyl)-4-chlorobenzamide]
pIC50: > 5.30

O=C(NCCNc1nsc2ccccc12)c1ccc(F)cc1F [Compound 349, N-(2-(benzo[d]isothiazol-3-ylamino)ethyl)-2,4-difluorobenzamide]
pIC50: > 5.30
